Several values for one entry are separate records, joined by “and”; a condition that tells them apart may be missing. Equal values may be shown once. Read-outs that look alike come from different tables or passages of the source.
How the values were obtained:
ETA [1] = assay type: cell-based, human; details: ETA-KOR
ETA [2] = assay type: cell-based, human; details: ETA-KOR, Log [Drug]
KOR [3] = molecular target: T1, KOR (Homo sapiens, UniProt P41145); test: Real-time BRET kinetics of KOR–Nb6; assay type: cell-based; details: for BRET, KOR + Nb6: SalA / Buffer
KOR [4] = molecular target: T1, KOR; test: Real-time BRET kinetics of KOR–Nb39; assay type: cell-based; details: SalA / Buffer
KOR [5] = molecular target: T1, KOR; test: Competition binding with 3H-JDTic in the absence or presence of 5 µM Nb6 or Nb39

SMILES: CC[C@H](C)[C@H](NC(=O)[C@H](CC(=O)O)NC(=O)[C@H](CC(C)C)NC(=O)[C@H](Cc1c[nH]cn1)NC(=O)[C@@H]1CSSC[C@H](N)C(=O)N[C@@H](CO)C(=O)N[C@H]2CSSC[C@H](NC(=O)[C@H](CCC(=O)O)NC(=O)[C@H](CCCCN)NC(=O)[C@H](CC(=O)O)NC(=O)[C@H](CCSC)NC(=O)[C@H](CC(C)C)NC(=O)[C@H](CO)NC(=O)[C@H](CO)NC2=O)C(=O)N[C@@H](C(C)C)C(=O)N[C@@H](Cc2ccc(O)cc2)C(=O)N[C@@H](Cc2ccccc2)C(=O)N1)C(=O)N[C@H](C(=O)N[C@@H](Cc1c[nH]c2ccccc12)C(=O)O)[C@@H](C)CC [Endothelin-1]
- Net BRET receptor and Nb6, source data Figure 5b (ETA [1]; Log [Endothelin-1,] M = -5): 4.499 and 7.7967 and 6.394
- Net BRET receptor and Nb6, source data Figure 5b (ETA [1]; Log [Endothelin-1,] M = -6): 5.268 and 6.925 and 6.885
- Net BRET receptor and Nb6, source data Figure 5b (ETA [1]; Log [Endothelin-1,] M = -7): 45.5139 and 37.9048 and 42.0353
- Net BRET receptor and Nb6, source data Figure 5b (ETA [1]; Log [Endothelin-1,] M = -8): 94.8754 and 92.9034 and 94.0384
- Net BRET receptor and Nb6, source data Figure 5b (ETA [1]; Log [Endothelin-1,] M = -9): 99.5856 and 100.414 and 100.568
- Net BRET receptor and Nb6, source data Figure 5b (ETA [1]; Log [Endothelin-1,] M = -10): 98.7901 and 95.8099 and 98.252
- Net BRET receptor and Nb6, source data Figure 5b (ETA [1]; Log [Endothelin-1,] M = -11): 101.512 and 91.9128 and 97.2504
- Net BRET G protein activation, source data Figure 5c (ETA [2]; M = -5.5): 8.126 and 14.2188 and 11.7402
- Net BRET G protein activation, source data Figure 5c (ETA [2]; M = -6.5): 13.3731 and 8.584 and 11.2246
- Net BRET G protein activation, source data Figure 5c (ETA [2]; M = -7.5): 27.9656 and 34.3494 and 31.9455
- Net BRET G protein activation, source data Figure 5c (ETA [2]; M = -8.5): 53.981 and 48.3799 and 51.5065
- Net BRET G protein activation, source data Figure 5c (ETA [2]; M = -9.5): 73.7875 and 86.5149 and 80.3002
- Net BRET G protein activation, source data Figure 5c (ETA [2]; M = -10.5): 94.2005 and 91.2115 and 93.274
- Net BRET G protein activation, source data Figure 5c (ETA [2]; M = -11.5): 104.258 and 97.1609 and 101.662
- Net BRET G protein activation, source data Figure 5c (ETA [2]; M = -12.5): 100.567 and 115.131

SMILES: COC(=O)[C@@H]1C[C@H](OC(C)=O)C(=O)[C@H]2[C@@]1(C)CC[C@H]1C(=O)O[C@H](c3ccoc3)C[C@]21C [Sal A, Salvinorin A]
- t1/2 of decrease in Nb6-KOR BRET (KOR [3]; 10 µM Sal A added): 50 ± 10 s
- BRET, KOR + Nb6 (KOR [3]; time 5 min): 1.409 and 1.4035 and 1.421 and 1.389
- BRET, KOR + Nb6 (KOR [3]; time 6 min): 1.298 and 1.281 and 1.268 and 1.228
- BRET, KOR + Nb6 (KOR [3]; time 7 min): 1.173 and 1.165 and 1.166 and 1.137
- BRET, KOR + Nb6 (KOR [3]; time 8 min): 1.122 and 1.113 and 1.12 and 1.093
- BRET, KOR + Nb6 (KOR [3]; time 9 min): 1.088 and 1.0779 and 1.094 and 1.0747
- BRET, KOR + Nb6 (KOR [3]; time 10 min): 1.082 and 1.078 and 1.0874 and 1.065
- BRET, KOR + Nb6 (KOR [3]; time 11 min): 1.074 and 1.07 and 1.083 and 1.058
- BRET, KOR + Nb6 (KOR [3]; time 12 min): 1.074 and 1.063 and 1.076 and 1.058
- BRET, KOR + Nb6 (KOR [3]; time 13 min): 1.075 and 1.061 and 1.082 and 1.064
- BRET, KOR + Nb6 (KOR [3]; time 14 min): 1.069 and 1.063 and 1.08 and 1.062
- BRET, KOR + Nb6 (KOR [3]; time 15 min): 1.083 and 1.067 and 1.08 and 1.061
- BRET, KOR + Nb6 (KOR [3]; time 16 min): 1.077 and 1.067 and 1.078 and 1.056
- BRET, KOR + Nb6 (KOR [3]; time 17 min): 1.076 and 1.07 and 1.085 and 1.064
- BRET, KOR + Nb6 (KOR [3]; time 18 min): 1.081 and 1.07 and 1.082 and 1.068
- BRET, KOR + Nb6 (KOR [3]; time 19 min): 1.086 and 1.077 and 1.091 and 1.066
- BRET, KOR + Nb6 (KOR [3]; time 20 min): 1.081 and 1.073 and 1.083 and 1.0658
- BRET, KOR + Nb6 (KOR [3]; time 21 min): 1.087 and 1.079 and 1.095 and 1.076
- BRET, KOR + Nb6 (KOR [3]; time 22 min): 1.074 (2×) and 1.079 and 1.0714
- BRET, KOR + Nb6 (KOR [3]; time 23 min): 1.088 and 1.082 and 1.074 and 1.0724
- BRET, KOR + Nb6 (KOR [3]; time 24 min): 1.091 and 1.078 and 1.081 and 1.076
- BRET, KOR + Nb6 (KOR [3]; time 25 min): 1.086 and 1.081 and 1.078 and 1.0719
- BRET, KOR + Nb6 (KOR [3]; time 26 min): 1.084 and 1.082 and 1.088 and 1.07
- BRET, KOR + Nb6 (KOR [3]; time 27 min): 1.079 and 1.0834 and 1.085 and 1.083
- BRET, KOR + Nb6 (KOR [3]; time 28 min): 1.084 and 1.076 and 1.086 (2×)
- BRET, KOR + Nb6 (KOR [3]; time 29 min): 1.0858 and 1.081 (2×) and 1.075
- BRET, KOR + Nb39 (KOR [4]; time 5 min): 0.0262 and 0.02211 and 0.02102 and 0.02289
- BRET, KOR + Nb39 (KOR [4]; time 6 min): 0.3036 and 0.3141 and 0.3188 and 0.3115
- BRET, KOR + Nb39 (KOR [4]; time 7 min): 0.3004 and 0.3137 and 0.3136 and 0.3142
- BRET, KOR + Nb39 (KOR [4]; time 8 min): 0.2978 and 0.3081 and 0.3108 and 0.3153
- BRET, KOR + Nb39 (KOR [4]; time 9 min): 0.2922 and 0.311 and 0.3085 and 0.3127
- BRET, KOR + Nb39 (KOR [4]; time 10 min): 0.2996 and 0.3174 and 0.3198
- BRET, KOR + Nb39 (KOR [4]; time 11 min): 0.2967 and 0.3155 and 0.3205
- BRET, KOR + Nb39 (KOR [4]; time 12 min): 0.298 and 0.3156 and 0.3148 and 0.3226
- BRET, KOR + Nb39 (KOR [4]; time 13 min): 0.2971 and 0.3177 and 0.3205 and 0.3168
- BRET, KOR + Nb39 (KOR [4]; time 14 min): 0.2971 and 0.3134 and 0.3132 and 0.3235
- BRET, KOR + Nb39 (KOR [4]; time 15 min): 0.2986 and 0.3191 and 0.3238 and 0.3265
- BRET, KOR + Nb39 (KOR [4]; time 16 min): 0.2964 and 0.3182 and 0.3184 and 0.324
- BRET, KOR + Nb39 (KOR [4]; time 17 min): 0.3018 and 0.3186 and 0.3227 and 0.3317
- BRET, KOR + Nb39 (KOR [4]; time 18 min): 0.3003 and 0.3158 and 0.3185 and 0.326
- BRET, KOR + Nb39 (KOR [4]; time 19 min): 0.3043 and 0.3186 and 0.3228 and 0.323
- BRET, KOR + Nb39 (KOR [4]; time 20 min): 0.2961 and 0.3231 and 0.3183 and 0.3325
- BRET, KOR + Nb39 (KOR [4]; time 21 min): 0.3008 and 0.3186 and 0.3235
- BRET, KOR + Nb39 (KOR [4]; time 22 min): 0.3025 and 0.3173 and 0.3147 and 0.3318
- BRET, KOR + Nb39 (KOR [4]; time 23 min): 0.2987 and 0.3226 and 0.3296
- BRET, KOR + Nb39 (KOR [4]; time 24 min): 0.2996 and 0.3206 and 0.3159 and 0.3334
- BRET, KOR + Nb39 (KOR [4]; time 25 min): 0.3041 and 0.3179 and 0.3117 and 0.3236
- BRET, KOR + Nb39 (KOR [4]; time 26 min): 0.2994 and 0.3089 and 0.3198 and 0.3347
- BRET, KOR + Nb39 (KOR [4]; time 27 min): 0.3042 and 0.3155 and 0.3211 and 0.3323
- BRET, KOR + Nb39 (KOR [4]; time 28 min): 0.2989 and 0.303 and 0.3151 and 0.3345
- BRET, KOR + Nb39 (KOR [4]; time 29 min): 0.2966 and 0.3193 and 0.305 and 0.3267
- BRET, KOR + Nb39 (KOR [4]; time 30 min): 0.2958 and 0.3183 and 0.3167 and 0.3297

SMILES: O=C(N[C@@H]1C=CC2[C@H]3Cc4ccc(O)c5c4[C@@]2(CCN3CC2CC2)[C@H]1O5)c1cccc(I)c1 (stereo partly shown) [MP1104]
- effect of Nb6 on binding affinity (KOR [5]): only slightly affected

SMILES: NC(=O)c1ccc(Oc2ccc(CN3CCC[C@H]3c3cccnc3)cc2)c(F)c1 [LY2459989]
- increase of binding affinity in the presence of Nb6 (KOR [5]): ~ 6 fold
- Ki (KOR [5]; read-out: Ki ± SEM): 3.4 ± 0.25 nM
